Reference: ChEMBL document CHEMBL1201862, “PubChem BioAssay data set” (2004)
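The compound was tested at five concentrations on cells cultured in 96-well plates, with a 48-hour exposure period. Here, GI50 denotes the concentration required for 50% inhibition of growth.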 Activity calls are given as the source filed them. Rule as the data show it: active = GI50 up to about 1.1 µM and inactive = higher.

Key:
Assay in all cases: NCI-60 cell line screen, 48 h
SK-MEL-2 = system: SK-MEL-2
EKVX = system: EKVX
NCI-H23 = system: NCI-H23
OVCAR-5 = system: OVCAR-5
MOLT-4 = system: MOLT-4
DU-145 = system: DU-145
SF-295 = system: SF-295
OVCAR-4 = system: OVCAR-4
SNB-19 = system: SNB-19
UO-31 = system: UO-31
A549 = system: A549
HCT-116 = system: HCT-116
MDA-MB-231 = system: MDA-MB-231
T47D = system: T47D
HCC 2998 = system: HCC 2998
PC-3 = system: PC-3
Hs-578T = system: Hs-578T
NCI-H522 = system: NCI-H522
RXF 393 = system: RXF 393
UACC-257 = system: UACC-257

| Structure (SMILES) | GI50 (SK-MEL-2) | GI50 (EKVX) | GI50 (NCI-H23) | GI50 (OVCAR-5) | GI50 (MOLT-4) | GI50 (DU-145) | GI50 (SF-295) | GI50 (OVCAR-4) | GI50 (SNB-19) | GI50 (UO-31) | GI50 (A549) | GI50 (HCT-116) | GI50 (MDA-MB-231) | GI50 (T47D) | GI50 (HCC 2998) | GI50 (PC-3) | GI50 (Hs-578T) | GI50 (NCI-H522) | GI50 (RXF 393) | GI50 (UACC-257) |
| --- | --- | --- | --- | --- | --- | --- | --- | --- | --- | --- | --- | --- | --- | --- | --- | --- | --- | --- | --- | --- |
| O=c1c2ccccc2[nH]c(=S)n1-c1ccc(/N=N/c2cccc3cc(O)ccc23)cc1 | > 100 µM (inactive) | > 100 µM (inactive) | > 100 µM (inactive) | 74.1 µM (inactive) | > 100 µM (inactive) | > 100 µM (inactive) | > 100 µM (inactive) | > 100 µM (inactive) | > 100 µM (inactive) | > 100 µM (inactive) | > 100 µM (inactive) | > 100 µM (inactive) | 48.4 µM (inactive) | > 100 µM (inactive) | > 100 µM (inactive) | 35.1 µM (inactive) | > 100 µM (inactive) | > 100 µM (inactive) | > 100 µM (inactive) | > 100 µM (inactive) |
| CC(C)(C)c1cc2c(O)c(c1)Cc1cc(C(C#N)(Cc3ccc4ccccc4c3)Cc3ccc4ccccc4c3)cc(c1O)Cc1cc(C(C)(C)C)cc(c1O)Cc1cc(C(C#N)(Cc3ccc4ccccc4c3)Cc3ccc4ccccc4c3)cc(c1O)C2 | > 100 µM (inactive) | > 100 µM (inactive) | > 100 µM (inactive) | > 100 µM (inactive) | > 100 µM (inactive) | > 100 µM (inactive) | > 100 µM (inactive) | > 100 µM (inactive) | > 100 µM (inactive) | > 100 µM (inactive) | > 100 µM (inactive) | > 100 µM (inactive) | > 100 µM (inactive) | > 100 µM (inactive) | > 100 µM (inactive) | > 100 µM (inactive) | > 100 µM (inactive) | > 100 µM (inactive) | > 100 µM (inactive) | > 100 µM (inactive) |
| CCOC(=O)/C=C(\C(=O)OCC)n1cc(C)c(=O)n(Cc2cnnn2CCCCOC(C)=O)c1=O | 22.1 µM (inactive) | 11.3 µM (inactive) | 17.1 µM (inactive) | 17.4 µM (inactive) | 2.64 µM (inactive) | > 41.7 µM (inactive) | 32.1 µM (inactive) | 19.2 µM (inactive) | 25.4 µM (inactive) | 15 µM (inactive) | 24.5 µM (inactive) | 6.53 µM (inactive) | 22.2 µM (inactive) | 21.7 µM (inactive) | 21 µM (inactive) | 16.4 µM (inactive) | 17 µM (inactive) | 1.38 µM (inactive) | 2.7 µM (inactive) | 15.7 µM (inactive) |
| Cc1c2cc[n+](C)cc2c(C)c2c1[nH]c1ccc(Cl)cc12 | 2.25 µM (inactive) | 0.536 µM (active) | 0.843 µM (active) | 8.32 µM (inactive) | 2.31 µM (inactive) | 2.3 µM (inactive) | 0.374 µM (active) | 3.28 µM (inactive) | 0.274 µM (active) | 1.51 µM (inactive) | 0.197 µM (active) | 0.881 µM (active) | 4.41 µM (inactive) | 1.09 µM (active) | 1.63 µM (inactive) | 0.918 µM (active) | 0.295 µM (active) | 0.617 µM (active) | 1.18 µM (inactive) | 8.38 µM (inactive) |
| CCOC(=O)C(Cc1cn(S(=O)(=O)c2ccc(C)cc2)cn1)P(=O)(OCC)OCC (configuration not stated) | > 100 µM (inactive) | > 100 µM (inactive) | > 100 µM (inactive) | > 100 µM (inactive) | > 100 µM (inactive) | > 100 µM (inactive) | > 100 µM (inactive) | > 100 µM (inactive) | > 100 µM (inactive) | > 100 µM (inactive) | > 100 µM (inactive) | > 100 µM (inactive) | > 100 µM (inactive) | > 100 µM (inactive) | > 100 µM (inactive) | > 100 µM (inactive) | > 100 µM (inactive) | > 100 µM (inactive) | > 100 µM (inactive) | > 100 µM (inactive) |
| O=C1c2n[nH]nc2C(=O)c2n[nH]nc21 | > 100 µM (inactive) | > 100 µM (inactive) | > 100 µM (inactive) | > 100 µM (inactive) | > 100 µM (inactive) | > 100 µM (inactive) | > 100 µM (inactive) | > 100 µM (inactive) | > 100 µM (inactive) | > 100 µM (inactive) | > 100 µM (inactive) | > 100 µM (inactive) | > 100 µM (inactive) | > 100 µM (inactive) | > 100 µM (inactive) | > 100 µM (inactive) | > 100 µM (inactive) | > 100 µM (inactive) | > 100 µM (inactive) | > 100 µM (inactive) |
| CN(C)c1ccc2c3c(c(=O)oc2c1)CCC3 | > 100 µM (inactive) | 9.14 µM (inactive) | 74 µM (inactive) | > 100 µM (inactive) | 27.2 µM (inactive) | 80.4 µM (inactive) | 92.7 µM (inactive) | > 100 µM (inactive) | > 100 µM (inactive) | > 100 µM (inactive) | 51.3 µM (inactive) | 60.8 µM (inactive) | 28.7 µM (inactive) | 36.1 µM (inactive) | 54.7 µM (inactive) | 90.4 µM (inactive) | 36.8 µM (inactive) | 26.7 µM (inactive) | 64 µM (inactive) | 82.8 µM (inactive) |
| CCCC(=O)O[C@H]1C=C2C[C@@]34SS[C@]5(CC6=C[C@H](OC(C)=O)[C@@H]7O[C@@H]7[C@H]6N5C3=O)C(=O)N4[C@@H]2[C@H]2O[C@H]21 | 0.0552 µM (active) | 0.0178 µM (active) | 0.0241 µM (active) | 0.0112 µM (active) | 0.00904 µM (active) | 0.0356 µM (active) | 0.329 µM (active) | 0.0197 µM (active) | 0.0126 µM (active) | 0.059 µM (active) | 0.0311 µM (active) | 0.00847 µM (active) | 0.0254 µM (active) | 0.0256 µM (active) | 0.00923 µM (active) | 0.0199 µM (active) | 0.0203 µM (active) | < 0.005 µM (active) | 0.0205 µM (active) | 0.0181 µM (active) |
| CC1(C)CC(=O)C2(CC(CSc3ccccc3)C(CS(=O)(=O)c3ccccc3)C2)C(=O)C1 (configuration not stated) | > 100 µM (inactive) | > 100 µM (inactive) | > 100 µM (inactive) | > 100 µM (inactive) | > 100 µM (inactive) | > 100 µM (inactive) | > 100 µM (inactive) | > 100 µM (inactive) | > 100 µM (inactive) | > 100 µM (inactive) | > 100 µM (inactive) | > 100 µM (inactive) | > 100 µM (inactive) | 45.5 µM (inactive) | > 100 µM (inactive) | 30.8 µM (inactive) | > 100 µM (inactive) | > 100 µM (inactive) | > 100 µM (inactive) | > 100 µM (inactive) |
| O=C1c2cccnc2-c2nccc3ccnc1c23 | 2.16 µM (inactive) | 1.58 µM (inactive) | 0.281 µM (active) | 2.07 µM (inactive) | 0.413 µM (active) | 0.966 µM (active) | 1.29 µM (inactive) | 1.91 µM (inactive) | 1.03 µM (active) | 0.726 µM (active) | 1.6 µM (inactive) | 0.0865 µM (active) | 1.32 µM (inactive) | 0.622 µM (active) | 1.4 µM (inactive) | 1.36 µM (inactive) | 2.02 µM (inactive) | 0.163 µM (active) | 1.13 µM (inactive) | 0.964 µM (active) |
| CCOC(=O)/C(=C\c1ccc(F)cc1)C(C)=O | 21.2 µM (inactive) | 22.3 µM (inactive) | 21.2 µM (inactive) | 58.6 µM (inactive) | 26.5 µM (inactive) | 23.2 µM (inactive) | 29.5 µM (inactive) | 28 µM (inactive) | 33.8 µM (inactive) | 16.2 µM (inactive) | 45.3 µM (inactive) | 29.2 µM (inactive) | 22.6 µM (inactive) | 21.8 µM (inactive) | 13.5 µM (inactive) | 17.1 µM (inactive) | 36.1 µM (inactive) | 14.3 µM (inactive) | 17 µM (inactive) | 19.2 µM (inactive) |
| CC(C)C1=CC(=O)[C@@](C)(C2[C@H](O)C[C@@]3(C)[C@@H]4CC=C5[C@@H](CC[C@@H](OC6OCC(O)C(O)C6OC6OC(C)C(O)C(O)C6O)C5(C)C)[C@]4(C)C(=O)C[C@]23C)O1 (some centres not stated) |  | > 100 µM (inactive) | > 100 µM (inactive) | > 100 µM (inactive) | > 100 µM (inactive) | > 100 µM (inactive) | 59 µM (inactive) | > 100 µM (inactive) | > 100 µM (inactive) | > 100 µM (inactive) | > 100 µM (inactive) | > 100 µM (inactive) | > 100 µM (inactive) | > 100 µM (inactive) | > 100 µM (inactive) | > 100 µM (inactive) | > 100 µM (inactive) | > 100 µM (inactive) | > 100 µM (inactive) |  |
| COC(=O)c1c(O)ccc2c1c1c(n2Cc2ccccn2)C(=O)c2ccccc2C1=O | 42.7 µM (inactive) | 36.7 µM (inactive) | 57.1 µM (inactive) | 56.8 µM (inactive) | 94.8 µM (inactive) | 42.4 µM (inactive) | 20.2 µM (inactive) |  | 86.5 µM (inactive) | 87.9 µM (inactive) | 29.8 µM (inactive) | 79.8 µM (inactive) | > 100 µM (inactive) | 32 µM (inactive) | 13.2 µM (inactive) | 58.7 µM (inactive) | 46.1 µM (inactive) | 15.8 µM (inactive) | 52.5 µM (inactive) | > 100 µM (inactive) |
